This is an account of results in patent publication US10035804B2, “Spirodiamine derivatives as aldosterone synthase inhibitors” (Hoffmann-La Roche Inc., priority 2014, dated 2018).

Usually EC50 stands for the concentration that produces a half-maximal response. A lower EC50 goes with higher potency in that assay.

Experiment [1] concerns rat model of chronic kidney disease. The settings on record: cited from earlier work; for cardiac and aortic medial hypertrophy / renal effects (albuminuria, azotemia, renovascular hypertrophy, glomerular injury, PAI-1 and osteopontin mRNA, tubulointerstitial fibrosis): angiotensin II and high salt treated rats.
The subject of experiment [2] is rats with experimental heart failure. As to conditions: cited from earlier work.
Experiment [3] relates to patients with primary aldosteronism. As to conditions: oral; cited from earlier work.
The target in a further experiment is human CYP11B2 (Homo sapiens (Human), UniProt P19099). The experiment in a line: G-402 cellular enzyme assay, human CYP11B2 (aldosterone release). As to conditions: G-402 cells expressing human CYP11B2; 1 μM Deoxycorticosterone; aldosterone in supernatant after 16 h. In kind it is cell-based. The method, boiled down:
(§1)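 Stable G-402 transfectants expressing human CYP11B1 or CYP11B2 with inhibitors at varying doses, 16 h in DMEM/F12 with 2.5% charcoal-treated FCS; substrate 1 μM 11-deoxycortisol (CYP11B1) or 1 μM deoxycorticosterone (CYP11B2). Cortisol or aldosterone in supernatant measured by HTRF; EC50 from 4-parameter MMF sigmoidal fit.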

Another experiment deals with human CYP11B1 (Homo sapiens (Human), UniProt P15538). The experiment in a line: G-402 cellular enzyme assay, human CYP11B1 (cortisol release). The settings on record: G-402 cells expressing human CYP11B1; 1 μM Deoxycortisol; cortisol in supernatant after 16 h. In kind it is cell-based. Put shortly: as §1
human CYP11B1, sequence (P15538 25-503): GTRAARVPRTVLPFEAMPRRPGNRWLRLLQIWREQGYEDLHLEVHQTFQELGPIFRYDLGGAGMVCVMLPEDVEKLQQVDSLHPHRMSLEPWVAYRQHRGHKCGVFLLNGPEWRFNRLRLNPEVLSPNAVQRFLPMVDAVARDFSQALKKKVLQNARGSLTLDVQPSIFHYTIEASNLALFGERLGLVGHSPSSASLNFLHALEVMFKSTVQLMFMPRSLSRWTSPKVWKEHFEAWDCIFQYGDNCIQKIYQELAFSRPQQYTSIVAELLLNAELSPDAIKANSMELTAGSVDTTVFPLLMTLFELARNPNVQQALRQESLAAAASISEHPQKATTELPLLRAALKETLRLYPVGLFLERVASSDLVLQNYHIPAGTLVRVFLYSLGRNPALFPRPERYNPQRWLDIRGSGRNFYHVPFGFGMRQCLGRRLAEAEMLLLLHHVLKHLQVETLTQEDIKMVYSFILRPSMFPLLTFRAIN

human CYP11B2, sequence (P19099 25-503): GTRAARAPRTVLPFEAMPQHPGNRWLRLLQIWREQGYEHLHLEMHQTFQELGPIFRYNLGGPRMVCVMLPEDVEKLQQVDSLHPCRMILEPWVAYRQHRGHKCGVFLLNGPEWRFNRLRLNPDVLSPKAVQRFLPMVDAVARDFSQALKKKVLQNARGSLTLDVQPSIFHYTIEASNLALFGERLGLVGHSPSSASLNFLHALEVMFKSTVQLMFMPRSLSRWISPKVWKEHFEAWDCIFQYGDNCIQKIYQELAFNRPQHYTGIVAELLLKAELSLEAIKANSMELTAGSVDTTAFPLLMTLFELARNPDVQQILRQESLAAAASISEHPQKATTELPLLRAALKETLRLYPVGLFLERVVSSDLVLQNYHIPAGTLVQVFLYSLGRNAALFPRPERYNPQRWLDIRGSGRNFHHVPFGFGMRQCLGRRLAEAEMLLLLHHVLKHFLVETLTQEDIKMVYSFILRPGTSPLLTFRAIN

Consider `CC(=O)S[C@@H]1CC2=CC(=O)CC[C@]2(C)[C@H]2CC[C@@]3(C)[C@@H](CC[C@@]34CCC(=O)O4)[C@H]12` [spironolactone], for which, in experiment [1], the “cardiac and aortic medial hypertrophy” value is “attenuated”; the “renal effects (albuminuria, azotemia, renovascular hypertrophy, glomerular injury, PAI-1 and osteopontin mRNA, tubulointerstitial fibrosis)” value is “prevented these renal effects”. For the same molecule, the aldosterone result in experiment [1] (at 4 and 8 weeks of treatment) is “increased”. Moreover, the “angiotensin II and salt-stimulated PAI-1 mRNA expression” value in experiment [1] (in the aorta and the heart) is given as “enhanced”.

As to `N#Cc1ccc([C@H]2CCCc3cncn32)cc1` [FAD286], in experiment [1], the “cardiac and aortic medial hypertrophy” value is listed as “attenuated”; the “renal effects (albuminuria, azotemia, renovascular hypertrophy, glomerular injury, PAI-1 and osteopontin mRNA, tubulointerstitial fibrosis)” value is “prevented these renal effects”. Moreover, the plasma aldosterone result in experiment [1] (following 4 weeks of treatment) is “reduced”. Also, in experiment [2], the “blood pressure and cardiovascular function and structure” value was “improved”; the “kidney function and morphology” value was “improve”.

With `N#Cc1ccc([C@H]2CCc3cncn32)c(F)c1` [LC1699], in experiment [3], the blood pressure entry is on record as “mildly decreased”; the circulating aldosterone levels entry was “significantly lower”; the hypokalemia entry is on record as “corrected”; the “selectivity (effects on the glucocorticoid axis, cortisol synthesis)” value was “poor selectivity”.

As to `Cc1cncc(C(=O)N2CC3(C2)CN(c2cncc(N4C(=O)c5ccc(Cl)cc5C4(C)C)c2)C3)n1` [Example 28, 5-Chloro-3,3-dimethyl-2-[5-[2-(6-methylpyrazine-2-carbonyl)-2,6-diazaspiro[3.3]heptan-6-yl]-3-pyridyl]isoindolin-1-one], the EC50 on human CYP11B2 stood at 0.0577 nM; at human CYP11B1 it was 0.64 nM.

Regarding `Cc1cc(C(=O)N2CC3(C2)CN(c2cncc(N4C(=O)c5ccc(Cl)cc5C4(C)C)c2)C3)n(C)n1` [Example 31, 5-Chloro-2-[5-[2-(2,5-dimethylpyrazole-3-carbonyl)-2,6-diazaspiro[3.3]heptan-6-yl]-3-pyridyl]-3,3-dimethyl-isoindolin-1-one], the EC50 amounted to 0.154 nM on human CYP11B2 and 6.43 nM at human CYP11B1.

For `CC1(C)c2cc(Cl)ccc2C(=O)N1c1cncc(N2CC3(CN(C(=O)c4cnccn4)C3)C2)c1` [Example 38, 5-Chloro-3,3-dimethyl-2-[5-[2-(pyrazine-2-carbonyl)-2,6-diazaspiro[3.3]heptan-6-yl]-3-pyridyl]isoindolin-1-one], the EC50 at human CYP11B2 was found to be 0.0268 nM; on human CYP11B1 it was 2.32 nM.

With `Cn1nccc1C(=O)N1CC2(C1)CN(c1cncc(N3C(=O)c4ccc(Cl)cc4C3(C)C)c1)C2` [Example 5, 5-Chloro-3,3-dimethyl-2-[5-[2-(2-methylpyrazole-3-carbonyl)-2,6-diazaspiro[3.3]heptan-6-yl]-3-pyridyl]isoindolin-1-one], the half-maximal effective concentration (EC50) at human CYP11B2 was 0.145 nM; at human CYP11B1, 15.7 nM.
